{"source": "PubChem BioAssay (NCI)", "experiment_in_all_cases": "inhibition of tumour cell growth, NCI panel, 384-well format", "key": {"SF-295 CNS": {"system": "SF-295 CNS"}, "K-562 leukemia": {"system": "K-562 leukemia"}, "SR leukemia": {"system": "SR leukemia"}, "MDA-MB-468 breast": {"system": "MDA-MB-468 breast"}, "BT-549 breast": {"system": "BT-549 breast"}, "HL-60(TB) leukemia": {"system": "HL-60(TB) leukemia"}, "ACHN renal": {"system": "ACHN renal"}, "SN12C renal": {"system": "SN12C renal"}, "SK-MEL-28 melanoma": {"system": "SK-MEL-28 melanoma"}, "NCI-H23 lung": {"system": "NCI-H23 lung"}, "SF-268 CNS": {"system": "SF-268 CNS"}, "RXF 393 renal": {"system": "RXF 393 renal"}, "786-0 renal": {"system": "786-0 renal"}, "NCI-H322M lung": {"system": "NCI-H322M lung"}, "A498 renal": {"system": "A498 renal"}, "UO-31 renal": {"system": "UO-31 renal"}, "SK-OV-3 ovarian": {"system": "SK-OV-3 ovarian"}, "MALME-3M melanoma": {"system": "MALME-3M melanoma"}, "A549 NSCLC": {"system": "A549 NSCLC"}, "UACC-62 melanoma": {"system": "UACC-62 melanoma"}, "U251 glioblastoma": {"system": "U251 glioblastoma"}, "MDA-MB-231 breast": {"system": "MDA-MB-231 breast"}, "HCT-116 colon": {"system": "HCT-116 colon"}, "HS 578T breast": {"system": "HS 578T breast"}, "NCI-H522 lung": {"system": "NCI-H522 lung"}, "SNB-75 CNS": {"system": "SNB-75 CNS"}, "CAKI-1 renal": {"system": "CAKI-1 renal"}, "TK-10 renal": {"system": "TK-10 renal"}, "OVCAR-3 ovarian": {"system": "OVCAR-3 ovarian"}, "M14 melanoma": {"system": "M14 melanoma"}}, "note": "“And” between values parts separate entries of the source, which are not always exact repeats. Identical values can stand only once.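 GI50 = concentration required for 50% inhibition of growth. Definition used: TGI = concentration required for complete inhibition of growth.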"}
{"molecule": "CC1Cc2ccccc2N1C(=O)Cc1nc(N2CCOCC2)cc(=O)[nH]1", "note": "(centres undefined)", "values": [{"measurement": "GI50", "setting": "SF-295 CNS", "result": "5.17 µM and 17.9 µM"}, {"measurement": "TGI", "setting": "SF-295 CNS", "result": "> 100", "unit": "µM"}, {"measurement": "GI50", "setting": "K-562 leukemia", "result": "37.8 µM and 78.3 µM"}, {"measurement": "TGI", "setting": "K-562 leukemia", "result": "> 100", "unit": "µM"}, {"measurement": "GI50", "setting": "SR leukemia", "result": "14.3 µM and 21.4 µM"}, {"measurement": "TGI", "setting": "SR leukemia", "result": "28.4 µM and 62.9 µM"}, {"measurement": "GI50", "setting": "MDA-MB-468 breast", "result": "3.31 µM and 15.1 µM"}, {"measurement": "TGI", "setting": "MDA-MB-468 breast", "result": "17.7 µM and 65.7 µM"}, {"measurement": "GI50", "setting": "BT-549 breast", "result": "2.46 µM and 11.6 µM"}, {"measurement": "TGI", "setting": "BT-549 breast", "result": "45.6 µM and > 100 µM"}, {"measurement": "GI50", "setting": "HL-60(TB) leukemia", "result": "3.35 µM and 10.3 µM"}, {"measurement": "TGI", "setting": "HL-60(TB) leukemia", "result": "24.7 µM and > 100 µM"}, {"measurement": "GI50", "setting": "ACHN renal", "result": "5.56 µM and 17.4 µM"}, {"measurement": "TGI", "setting": "ACHN renal", "result": "> 100", "unit": "µM"}, {"measurement": "GI50", "setting": "SN12C renal", "result": "4.74 µM and 22.6 µM"}, {"measurement": "TGI", "setting": "SN12C renal", "result": "> 100", "unit": "µM"}, {"measurement": "GI50", "setting": "SK-MEL-28 melanoma", "result": "6.88 µM and 26.8 µM"}, {"measurement": "TGI", "setting": "SK-MEL-28 melanoma", "result": "> 100", "unit": "µM"}, {"measurement": "GI50", "setting": "NCI-H23 lung", "result": "37.6 µM and > 100 µM"}, {"measurement": "TGI", "setting": "NCI-H23 lung", "result": "> 100", "unit": "µM"}, {"measurement": "GI50", "setting": "SF-268 CNS", "result": "18.5 µM and 49.8 µM"}, {"measurement": "TGI", "setting": "SF-268 CNS", "result": "> 100", "unit": "µM"}, {"measurement": "GI50", "setting": "RXF 393 renal", "result": "0.266 µM and 1.16 µM"}, {"measurement": "TGI", "setting": "RXF 393 renal", "result": "3.44 µM and 15 µM"}, {"measurement": "GI50", "setting": "786-0 renal", "result": "3.31 µM and 17.8 µM"}, {"measurement": "TGI", "setting": "786-0 renal", "result": "> 100", "unit": "µM"}, {"measurement": "GI50", "setting": "NCI-H322M lung", "result": "12.5 µM and 38.2 µM"}, {"measurement": "TGI", "setting": "NCI-H322M lung", "result": "99.7 µM and > 100 µM"}, {"measurement": "GI50", "setting": "A498 renal", "result": "0.286 µM and 1.34 µM"}, {"measurement": "TGI", "setting": "A498 renal", "result": "2.47 µM and 7.74 µM"}, {"measurement": "GI50", "setting": "UO-31 renal", "result": "4.59 µM and 14 µM"}, {"measurement": "TGI", "setting": "UO-31 renal", "result": "> 100 µM and 45.6 µM"}, {"measurement": "GI50", "setting": "SK-OV-3 ovarian", "result": "8.17 µM and 16.2 µM"}, {"measurement": "TGI", "setting": "SK-OV-3 ovarian", "result": "> 100", "unit": "µM"}, {"measurement": "GI50", "setting": "MALME-3M melanoma", "result": "14.3 µM and 23.3 µM"}, {"measurement": "TGI", "setting": "MALME-3M melanoma", "result": "97.1 µM and > 100 µM"}, {"measurement": "GI50", "setting": "A549 NSCLC", "result": "16.2 µM and 32.4 µM"}, {"measurement": "TGI", "setting": "A549 NSCLC", "result": "> 100", "unit": "µM"}, {"measurement": "GI50", "setting": "UACC-62 melanoma", "result": "9.61 µM and 32.7 µM"}, {"measurement": "TGI", "setting": "UACC-62 melanoma", "result": "> 100", "unit": "µM"}, {"measurement": "GI50", "setting": "U251 glioblastoma", "result": "67.8 µM and > 100 µM"}, {"measurement": "TGI", "setting": "U251 glioblastoma", "result": "> 100", "unit": "µM"}, {"measurement": "GI50", "setting": "MDA-MB-231 breast", "result": "22.5 µM and 51.2 µM"}, {"measurement": "TGI", "setting": "MDA-MB-231 breast", "result": "> 100", "unit": "µM"}, {"measurement": "GI50", "setting": "HCT-116 colon", "result": "16.3 µM and 52.1 µM"}, {"measurement": "TGI", "setting": "HCT-116 colon", "result": "> 100", "unit": "µM"}, {"measurement": "GI50", "setting": "HS 578T breast", "result": "3.8 µM and 13.4 µM"}, {"measurement": "TGI", "setting": "HS 578T breast", "result": "23.1 µM and 58.3 µM"}, {"measurement": "GI50", "setting": "NCI-H522 lung", "result": "25.2 µM and 57.7 µM"}, {"measurement": "TGI", "setting": "NCI-H522 lung", "result": "> 100", "unit": "µM"}, {"measurement": "GI50", "setting": "SNB-75 CNS", "result": "0.561 µM and 3.1 µM"}, {"measurement": "TGI", "setting": "SNB-75 CNS", "result": "25.4 µM and 40.2 µM"}, {"measurement": "GI50", "setting": "CAKI-1 renal", "result": "4.84 µM and 12.7 µM"}, {"measurement": "TGI", "setting": "CAKI-1 renal", "result": "> 100", "unit": "µM"}, {"measurement": "GI50", "setting": "TK-10 renal", "result": "7.25 µM and 25.3 µM"}, {"measurement": "TGI", "setting": "TK-10 renal", "result": "> 100", "unit": "µM"}, {"measurement": "GI50", "setting": "OVCAR-3 ovarian", "result": "2.41 µM and 8.56 µM"}, {"measurement": "TGI", "setting": "OVCAR-3 ovarian", "result": "24.6 µM and > 100 µM"}, {"measurement": "GI50", "setting": "M14 melanoma", "result": "> 100 µM and 71 µM"}]}
